From article PMC7345905, “Microbial Metabolite Urolithin B Inhibits Recombinant Human Monoamine Oxidase A Enzyme” (Metabolites, 2020)
Where “and” joins values, the source holds several entries; their conditions need not be identical. Identical values can stand only once.

What was measured:
[1] = design: method as in PMID 31892167; settings: rats administered pomegranate juice; cited from earlier work
[2] = target: T1, human recombinant MAO-A (Homo sapiens, UniProt P21397); experiment: MAO-Glo MAO-A inhibition assay; assay type: biochemical; settings: for IC50: 0–50 μM range, 160 µM substrate, 37 °C, 1 h, read-out: IC50 for MAO-A inhibitory activity; for MAO-A enzyme assay, Percent of control: N=1-3; for inhibition of MAO-A enzyme activity: compared to vehicle
T1 construct: purchased Sigma-Aldrich
T1 sequence (P21397 1-527): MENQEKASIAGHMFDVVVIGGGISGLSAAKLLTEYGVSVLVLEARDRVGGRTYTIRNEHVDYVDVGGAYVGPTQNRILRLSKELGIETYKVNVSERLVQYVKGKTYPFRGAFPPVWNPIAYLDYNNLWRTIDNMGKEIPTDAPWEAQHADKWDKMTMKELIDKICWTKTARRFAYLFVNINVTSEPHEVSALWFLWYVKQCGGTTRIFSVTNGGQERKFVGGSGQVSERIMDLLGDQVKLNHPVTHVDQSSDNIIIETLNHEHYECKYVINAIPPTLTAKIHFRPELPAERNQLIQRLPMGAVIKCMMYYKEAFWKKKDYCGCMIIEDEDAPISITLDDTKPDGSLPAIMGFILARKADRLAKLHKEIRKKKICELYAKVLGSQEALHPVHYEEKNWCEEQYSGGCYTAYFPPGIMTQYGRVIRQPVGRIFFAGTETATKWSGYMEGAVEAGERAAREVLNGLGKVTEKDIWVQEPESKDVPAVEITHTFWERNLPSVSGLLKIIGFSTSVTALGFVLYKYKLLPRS
Protocol: MAO inhibition assays were performed using a MAO-Glo™ Assay kit (Promega) according to the manufacturer’s instructions. Briefly, 1 µg of human recombinant MAO-A and MAO-B enzyme isoforms were incubated with 160 and 16 µM of MAO substrates, respectively. […] The enzyme reaction was quenched by the addition of a luciferin detection reagent. […] An equal volume of dimethyl sulfoxide (0.1%) was added to the enzyme assay as a control. After 1 h of incubation, the luminescence was measured with a multimode microplate reader (Synergy HT, BioTek, Winooski, VT, USA) to determine the MAO enzyme activities. Initially, the inhibition potential of all the test compounds was evaluated at a concentration of 100 μM. The control reaction (with no inhibitor) with vehicle (DMSO 0.1%) was set at 100% activity. To determine IC50 of the test compounds, the dose dependent enzyme assays were performed. We used range of 0.1 to 50 μM concentrations for MAO-A and 0.1 to 200 μM concentrations of test compounds for the MAO-B enzyme activities. The type of enzyme inhibition was determined using variable concentrations of MAO-A substrate (10–360 µM) and MAO-B substrate (2–64 µM) for the respective enzyme assay. […] A Lineweaver–Burk double reciprocal plot was generated, and the mode of inhibition was determined by visual examination of the plot. The slope of the reciprocal plots was plotted against the inhibitor concentrations and determined the x-axis intercept that represented the inhibitor constant, Ki value.

Compound: O=c1oc2cc(O)ccc2c2ccc(O)cc12 [UA, urolithin-A]
- detection in the brain [1]: detected in the brains
- IC50 [2]: 5.88 ± 0.69 µM
- MAO-A enzyme assay, Percent of control ([2]; 0.1 µM, listed as UroA): 103.587% of control and 97.8592% of control and 101.542% of control
- MAO-A enzyme assay, Percent of control ([2]; 0.5 µM, listed as UroA): 95.9845% of control and 94.0414% of control and 95.8492% of control
- MAO-A enzyme assay, Percent of control ([2]; 1 µM, listed as UroA): 62.4789% of control and 79.8224% of control and 85.3157% of control
- MAO-A enzyme assay, Percent of control ([2]; 5 µM, listed as UroA): 59.251% of control and 60.0082% of control and 51.3175% of control
- MAO-A enzyme assay, Percent of control ([2]; 10 µM, listed as UroA): 48.1185% of control and 46.1024% of control and 43.7898% of control
- MAO-A enzyme assay, Percent of control ([2]; 25 µM, listed as UroA): 24.6659% of control and 27.2749% of control and 27.3403% of control
- MAO-A enzyme assay, Percent of control ([2]; 50 µM, listed as UroA): 13.9758% of control and 16.0253% of control and 16.3887% of control
- MAO-A enzyme assay, Percent of control ([2]; 100 µM (Figure 1A), listed as UroA, 100 µM): 13.2811% of control and 14.5442% of control and 14.4558% of control
- inhibition of MAO-A enzyme activity ([2]; 100 µM): 86%

Compound: O=c1oc2cc(O)ccc2c2ccccc12 [UB, urolithin-B]
- IC50 [2]: 0.88 µM
- MAO-A enzyme assay, Percent of control ([2]; 0.1 µM, listed as UroB): 101.662% of control and 98.0675% of control and 93.5275% of control
- MAO-A enzyme assay, Percent of control ([2]; 0.5 µM, listed as UroB): 64.4524% of control and 74.8902% of control and 80.9217% of control
- MAO-A enzyme assay, Percent of control ([2]; 1 µM, listed as UroB): 51.8207% of control and 51.0498% of control and 41.9972% of control
- MAO-A enzyme assay, Percent of control ([2]; 5 µM, listed as UroB): 37.9544% of control and 37.4055% of control and 33.2487% of control
- MAO-A enzyme assay, Percent of control ([2]; 10 µM, listed as UroB): 21.8683% of control and 19.2684% of control and 22.2499% of control
- MAO-A enzyme assay, Percent of control ([2]; 25 µM, listed as UroB): 10.1321% of control and 11.7696% of control and 12.9039% of control
- MAO-A enzyme assay, Percent of control ([2]; 50 µM, listed as UroB): 6.787% of control and 6.156% of control and 5.227% of control
- MAO-A enzyme assay, Percent of control ([2]; 100 µM (Figure 1A), listed as UroB, 100 µM): 5.573% of control and 6.858% of control and 6.006% of control
- inhibition of MAO-A enzyme activity ([2]; 100 µM): 94%

Compound: O=c1oc2cc(O)ccc2c2cc(O)c(O)cc12 [UC, urolithin-C]
- IC50 [2]: 29.6 ± 1.8 µM
- MAO-A enzyme assay, Percent of control ([2]; 0.1 µM, listed as UroC): 81.5785% of control and 83.2586% of control and 93.5154% of control
- MAO-A enzyme assay, Percent of control ([2]; 0.5 µM, listed as UroC): 88.4995% of control and 88.7443% of control and 76.6736% of control
- MAO-A enzyme assay, Percent of control ([2]; 1 µM, listed as UroC): 95.9222% of control and 92.2777% of control and 91.5145% of control
- MAO-A enzyme assay, Percent of control ([2]; 5 µM, listed as UroC): 81.1285% of control and 71.4874% of control and 89.8253% of control
- MAO-A enzyme assay, Percent of control ([2]; 10 µM, listed as UroC): 68.5636% of control and 69.9396% of control and 63.7804% of control
- MAO-A enzyme assay, Percent of control ([2]; 25 µM, listed as UroC): 64.6896% of control and 58.5532% of control and 52.6539% of control
- MAO-A enzyme assay, Percent of control ([2]; 50 µM, listed as UroC): 46.6421% of control and 44.3022% of control and 44.6686% of control
- MAO-A enzyme assay, Percent of control ([2]; 100 µM (Figure 1A), listed as UroC, 100 µM): 11.345% of control and 12.577% of control and 11.352% of control
- inhibition of MAO-A enzyme activity ([2]; 100 µM): 88%
